System: CPP32
Test: Reconstitution of dATP-dependent CPP32 activation in HeLa S-100 immunodepleted of cytochrome c
Format: biochemical, human
Description: Cytochrome c present in the HeLa cell S-100 was immunodepleted as described in the Example 10. In FIG. 7A, 10 μl aliquots of HeLa S-100 (50 μg) (lanes 1 and 2), or 10 μl aliquots of HeLa S-100 immunodepleted of cytochrome c (lanes 3 and 4), or 10 μl of HeLa S-100 immunodepleted of cytochrome c supplemented with 0.2 μg Apaf-2 purified through the Mono S column (H) (lanes 5 and 6), bovine heart cytochrome c (B) (lanes 7 and 8), or rat liver cytochrome c (R) (lanes 9 and 10), were incubated with aliquots of 3 μl in vitro translated, ^35S-labeled CPP32 in the absence (lanes 1, 3, 5, 7, 9) or presence (lanes 2, 4, 6, 8, 10) of 1 mM dATP at 30° C. for 1 hr in a final reaction volume of 20 μl of buffer A. Samples were subjected to SDS-PAGE and transferred to a nitrocellulose filter which were then exposed to film for 16 hr at room temperature. In FIG. 7B, HeLa S-100 (50 μg) immunodepleted of cytochrome c were reconstituted with the indicated amount of Apaf-2 (purified through Mono S column step) in a CPP32 cleavage reaction as described in FIG. 7A. The cleaved products (p20) were quantified in a Fuji-1000 phosphorimager machine and plotted in comparison with that generated by HeLa S-100. In FIG. 7C, aliquots of 50 μl of HeLa S-100 (250 μg) (lanes 1 and 2), or 50 μl of HeLa S-100 immunodepleted of cytochrome c (lanes 3 and 4), or 50 μl of HeLa S-100 immunodepleted of cytochrome c supplemented with 1 μg apaf-2 purified through the Mono S column (H) (lanes 5 and 6), bovine heart cytochrome c (B) (lanes 7 and 8), or rat liver cytochrome c (R) (lanes 9 and 10), were incubated with aliquots of 6 μl hamster liver nuclei in the absence (lanes 1, 3, 5, 7, 9) or presence (lanes 2, 4, 6, 8, 10) of 1 mM dATP at 37° C. for 2 hr in a final reaction volume of 60 μl. The DNA were isolated as described in the Examples, analyzed on 2% agarose gel electrophoresis, and the DNA was visualized by ethidium bromide staining. In FIG. 7D, DNA fragmentation assays were carried out as in FIG. 7C using HeLa S-100 immunodepleted of cytochrome c alone (a,b) or supplemented with Apaf-2 purified through Mono S column step (c,d) in the absence (a,c) or presence of 1 mM dATP (b,d). After 2 hr incubation at 37° C., an aliquot of each reaction (30 μl) was stained with 4′,6′-diamidino-2-phenylindole (DAPI), and observed under a fluorescence microscope with a UV-2A combination filter.
To rule out the possibility that the Apaf-2 activity is due to a minor contaminating protein that co-purified with cytochrome c, an immunodepletion experiment was carried out using a monoclonal antibody against rat cytochrome c. This monoclonal antibody cross-reacts with purified Apaf-2. As shown in FIGS. 7A-7D, HeLa cell S-100 depleted of cytochrome c using the monoclonal anti-cytochrome c antibody lost the dATP-dependent activation of CPP32 and the ability to induce DNA fragmentation in the added nuclei (FIGS. 7A and 7C, lanes 3 and 4). Adding back either the purified Apaf-2 from HeLa cells or the commercial cytochrome c from bovine heart or rat liver to the immunodepleted extracts restored the dATP-dependent activation of CPP32 and DNA fragmentation (FIGS. 7A and 7C, lanes 5-10). The reconstitution of cytochrome c dependent-activation of CPP32 was evident with the addition of 0.01 μg (33 nM) of purified cytochrome c to the cytochrome c-depleted extracts (FIG. 7B).
CPP32 was translated and purified as described above. Aliquot of 3 μl of the in vitro translated CPP32 was incubated with the indicated protein fraction, nucleotides, and 1 mM additional MgCl2 at 30° C. for 1 hour in a final volume of 20 μl of buffer A. At the end of the incubation, 7 μl of 4×SDS sample buffer was added to each reaction. After boiling for 3 min, each sample was subjected to a 15% SDS-polyacrylamide gel electrophoresis (SDS-PAGE). The gel was transferred to a nitrocellulose filter which was subsequently exposed to a Kodak X-OMAT AR X-ray film (Eastman Kodak, Rochester, N.Y.) for 16 hr at room temperature. […]

[1] = added to cytochrome c-depleted extracts

## Apaf-2: 15 kDa factor bound to phosphocellulose column, purified from HeLa S-100, identified as human cytochrome c
0.2 μg added to immunodepleted HeLa S-100, 1 mM dATP
  restoration of dATP-dependent activation of CPP32: restored
[1]
  amount at which reconstitution of CPP32 activation was evident: 0.01 µg
  concentration at which reconstitution of CPP32 activation was evident: 33 nM
Addition of 0.3 μg
  recovered control activity (p20 cleaved product vs HeLa S-100): more than 100%
